Test results reported in patent US20100130608A1, “COMPOSITIONS AND METHODS FOR REDUCING TRIGLYCERIDE LEVELS” (Martek Biosciences Corporation, priority 2008, published 2010).
Marks after values point to notes of the source that are not given here.

Assays:
[1] = tested on: male Wister rats; assay: Effect on triglyceride levels in high fructose diet rats; type: in vivo, rat; conditions: for Triglycerides, mean: oral gavage, mean ± SD; for Serum triglycerides, LSMEAN: least squares mean
Text: The effect of the DHA ethyl ester (DHA-EE) produced according to the method of Example 2 on triglyceride levels was investigated using male Wister rats. The DHA-EE used in this example contained DHA at about 93.6% (w/w) of the total fatty acid content of the dosage form. The effect of purified DHA-EE was compared to two different DHA-containing products: DHASCO-T® (Martek Bioscience Corporation, Columbia, Md.) and Lovaza® (Reliant Pharmaceuticals, Inc., Durham, N.C.). DHASCO-T® comprises approximately 45% DHA and 55% other fatty acids (with substantially no EPA). Lovaza® comprises approximately 41.7% DHA ethyl ester, 51.7% EPA ethyl ester, and 6.4% other fatty acids. The vehicle control comprised corn oil. 84 Wistar rats were randomized into 7 groups of 12 rats each. Each rat was administered orally a high fructose diet for 4-5 weeks to raise triglyceride levels. After 4-5 weeks, rats with a triglyceride level <300 mg/dL were excluded. Then each rat was administered either (a) a vehicle control, (b) DHA ethyl ester (0.6 g/kg/day, 1.3 g/kg/day, 2.5 g/kg/day, or 5.0 g/kg/day), (c) DHASCO-T (5.0 g/kg/day), or (d) Lovaza (5.0 g/kg/day) for 28 days by oral gavage. Diets were controlled for calories, nutrients and levels of vitamin E. Triglyceride levels of the rats were measured at 14 days and 28 days. Triglyceride values shown are averages for each treatment group, presented as actual mean values.
The triglyceride results presented below in Table 8 are calculated from the same data set as in Table 7. Triglyceride values shown in Table 8 are averages for each treatment group, presented as least squares mean values.

[2] = tested on: male Wister rats; assay: Effect on total cholesterol levels in rats; type: in vivo, rat; conditions: for Serum cholesterol, LSMEAN: least squares mean; for Serum cholesterol, mean: mean ± SD
Method: The effect of the DHA ethyl ester of Example 2 on cholesterol levels was investigated using male Wister rats, and was compared to DHASCO-T® and Lovaza®. The rats were administered either (a) a vehicle control, (b) DHA ethyl ester (0.6 g/kg/day, 1.3 g/kg/day, 2.5 g/kg/day, or 5.0 g/kg/day), (c) DHASCO-T (5.0 g/kg/day), or (d) Lovaza (5.0 g/kg/day) for 28 days. Cholesterol levels, i.e., total cholesterol, of the rats were measured at 14 days and 28 days. Total cholesterol values shown are averages for each treatment group, i.e., actual mean values.
The cholesterol results presented below in Table 10 are calculated from the same data set as in Table 9. Cholesterol level values shown in Table 10 are averages for each treatment group, presented as least squares mean values.

[3] = rat, in vivo
Text: The plasma DHA fatty acid area percent and plasma EPA fatty acid area percent were determine in the rats at day 1 and day 29 (post necropsy).

[4] = 14 day, 0.6 g/kg/day fatty acid
[5] = 14 day, 1.3 g/kg/day fatty acid
[6] = 14 day, 2.5 g/kg/day fatty acid
[7] = 14 day, 5.0 g/kg/day fatty acid
[8] = 28 day, 0.6 g/kg/day fatty acid
[9] = 28 day, 1.3 g/kg/day fatty acid
[10] = 28 day, 2.5 g/kg/day fatty acid
[11] = 28 day, 5.0 g/kg/day fatty acid

For CC/C=C\C/C=C\C/C=C\C/C=C\C/C=C\C/C=C\CCC(=O)OCC [DHA-EE, ethyl docosahexaenoate], the “Serum triglycerides % of control, LSMEAN” value [1, 4] was 65 % of control, the “Triglycerides % of control, mean” value [1, 4] was 67 % of control and the “Triglycerides, mean” value [1, 4] was 176.5 ± 96.4 mg/dL. The “Serum triglycerides, LSMEAN” value [1, 4] was 168.4† mg/dL, the “Serum triglycerides % of control, LSMEAN” value [1, 5] was 67 % of control and the “Triglycerides % of control, mean” value [1, 5] was 66 % of control. The “Triglycerides, mean” value [1, 5] was 175.2 ± 50.6 mg/dL, the “Serum triglycerides, LSMEAN” value [1, 5] was 173.6† mg/dL and the “Serum triglycerides % of control, LSMEAN” value [1, 6] was 47 % of control. The “Triglycerides % of control, mean” value [1, 6] was 44 % of control, the “Triglycerides, mean” value [1, 6] was 115.5 ± 60.9 mg/dL and the “Serum triglycerides, LSMEAN” value [1, 6] was 120.2† mg/dL. The “Serum triglycerides % of control, LSMEAN” value [1, 7] was 43 % of control, the “Triglycerides % of control, mean” value [1, 7] was 37 % of control and the “Triglycerides, mean” value [1, 7] was 97.6 ± 47.8 mg/dL. For the same compound, the “Serum triglycerides, LSMEAN” value [1, 7] was 110.7† mg/dL, the “Serum triglycerides % of control, LSMEAN” value [1, 8] was 93 % of control and the “Triglycerides % of control, mean” value [1, 8] was 95 % of control. The “Triglycerides, mean” value [1, 8] was 182.7 ± 86.9 mg/dL, the “Serum triglycerides, LSMEAN” value [1, 8] was 174.5 mg/dL and the “Serum triglycerides % of control, LSMEAN” value [1, 9] was 60 % of control. The “Triglycerides % of control, mean” value [1, 9] was 60 % of control, the “Triglycerides, mean” value [1, 9] was 114.7 ± 37.2 mg/dL and the “Serum triglycerides, LSMEAN” value [1, 9] was 113.1† mg/dL. For the same compound, the “Serum triglycerides % of control, LSMEAN” value [1, 10] was 60 % of control, the “Triglycerides % of control, mean” value [1, 10] was 56 % of control and the “Triglycerides, mean” value [1, 10] was 107.9 ± 58.4 mg/dL. The “Serum triglycerides, LSMEAN” value [1, 10] was 112.6† mg/dL, the “Serum triglycerides % of control, LSMEAN” value [1, 11] was 47 % of control and the “Triglycerides % of control, mean” value [1, 11] was 41 % of control. For the same compound, the “Triglycerides, mean” value [1, 11] was 78.9 ± 46.5 mg/dL, the “Serum triglycerides, LSMEAN” value [1, 11] was 87.6† mg/dL and the “Effect on triglyceride levels (in words)” value ([1]; at 14 days, even at the lowest dosage level (0.6 g/kg/day)) was “reduces triglyceride levels”. For the same compound, the “Triglyceride levels versus control (in words)” value ([1]; day 28, 0.6 g DHA-EE) was “not significantly lower than control”, the “Serum cholesterol % of control, LSMEAN” value [2, 4] was 80 % of control and the “Serum cholesterol % of control, mean” value [2, 4] was 79 % of control. For the same compound, the “Serum cholesterol, LSMEAN” value [2, 4] was 72.4 mg/dL, the “Serum cholesterol, mean” value [2, 4] was 72.2 ± 17.7 mg/dL and the “Serum cholesterol % of control, LSMEAN” value [2, 5] was 82 % of control. The “Serum cholesterol % of control, mean” value [2, 5] was 82 % of control, the “Serum cholesterol, LSMEAN” value [2, 5] was 74.6 mg/dL and the “Serum cholesterol, mean” value [2, 5] was 75.0 ± 24.0 mg/dL. The “Serum cholesterol % of control, LSMEAN” value [2, 6] was 85 % of control, the “Serum cholesterol % of control, mean” value [2, 6] was 85 % of control and the “Serum cholesterol, LSMEAN” value [2, 6] was 77.4 mg/dL. The “Serum cholesterol, mean” value [2, 6] was 77.6 ± 23.1 mg/dL, the “Serum cholesterol % of control, LSMEAN” value [2, 7] was 75 % of control and the “Serum cholesterol % of control, mean” value [2, 7] was 74 % of control. The “Serum cholesterol, LSMEAN” value [2, 7] was 67.8 mg/dL, the “Serum cholesterol, mean” value [2, 7] was 67.1 ± 17.9 mg/dL and the “Serum cholesterol % of control, LSMEAN” value [2, 8] was 80 % of control. For the same compound, the “Serum cholesterol % of control, mean” value [2, 8] was 80 % of control, the “Serum cholesterol, LSMEAN” value [2, 8] was 80.6 mg/dL and the “Serum cholesterol, mean” value [2, 8] was 80.3 ± 21.8 mg/dL. The “Serum cholesterol % of control, LSMEAN” value [2, 9] was 62 % of control, the “Serum cholesterol % of control, mean” value [2, 9] was 62 % of control and the “Serum cholesterol, LSMEAN” value [2, 9] was 61.6† mg/dL. The “Serum cholesterol, mean” value [2, 9] was 62.0 ± 16.0 mg/dL, the “Serum cholesterol % of control, LSMEAN” value [2, 10] was 72 % of control and the “Serum cholesterol % of control, mean” value [2, 10] was 72 % of control. The “Serum cholesterol, LSMEAN” value [2, 10] was 71.3† mg/dL, the “Serum cholesterol, mean” value [2, 10] was 71.5 ± 17.8 mg/dL and the “Serum cholesterol % of control, LSMEAN” value [2, 11] was 60 % of control. For the same compound, the “Serum cholesterol % of control, mean” value [2, 11] was 60 % of control, the “Serum cholesterol, LSMEAN” value [2, 11] was 60.9† mg/dL and the “Serum cholesterol, mean” value [2, 11] was 60.2 ± 19.3 mg/dL. For the same compound, the “Effect on cholesterol levels (in words)” value ([2]; by 14 days, even at the lowest dosage level) was “reduces cholesterol levels”, the “Plasma DHA fatty acid area percent (in words)” value [3] was “correlates with increasing dosing of DHA” and the “Plasma EPA fatty acid area percent (in words)” value [3] was “does not increase in rats administered DHA-EE or DHASCO® to the same extent that it is increased in Lovaza®”.
